In US10550111B2, “Pyrimidine urea compound containing isoxazolines and use thereof” (SHENYANG SINOCHEM AGROCHEMICALS R&D CO., LTD, priority 2014, dated 2020):

What was measured:
Type in all cases: in vivo
[1] = tested on: Echinochloa crus-galli (L.) Beauv.; assay: Bioassay of herbicidal activity in greenhouse (further screening)
Method: (§1) Determination of herbicidal activity of compounds of the present invention against weeds was carried out by the following procedures:
(§2) Seeds of monocotyledonous and dicotyledonous weeds were sown in nutrition soil in paper pot (7 cm diameter), covered with soil in 1 cm and grown in the greenhouse under good growth conditions (temperature, atmospheric humidity, water supply). The compounds of the present invention as emulsifiable concentrate, were applied in pre-emergence and post-emergence treatment by track sprayer (Engineer Research Ltd., pressure 1.95 kg/cm^2, volume 500 L/hm^2, track speed 1.48 km/h). Pre-emergence treatment was conducted after seeding 24 hours and post-emergence treatment was done when the respective weeds reached predetermined leaf stage (grass weed 2- to 3-leaf stage, broad-leaf weed 2- to 4-leaf stage), the state of growth of the respective weeds were visually observed to determine the growth inhibition rate (%) in accordance with the following evaluation standard.
(§3) Growth inhibition rate (%): 0=no discernible action: 100=all weeds dead or not emerged.

[2] = tested on: Abutilon theophrasti Medic.; assay: as above
Method: as §1, §2, §3

[3] = tested on: Setaria glauca (L.) Beauv.; assay: as above
Method: as §1, §2, §3

Zinnia elegans Jacq. = assay: as above
Method: as §1, §2, §3

[4] = tested on: broad-leaf weeds and grass weeds; assay: General screening of herbicidal activity in greenhouse; details: 1000 g a.i./hm^2;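 note: 0 means no visible effect and 100 means all weeds dead or not emerged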
Method: as §1, §2, §3

Compound	pre-emergence and post-emergence herbicidal activity against broad-leaf weeds and grass weeds [4]	Growth inhibition rate, Post-emergence treatment, Echinochloa crus-galli (L.) Beauv. ([1]; dose 37.5 g a.i./hm^2) [%]	Growth inhibition rate, Post-emergence treatment, Echinochloa crus-galli (L.) Beauv. ([1]; dose 150 g a.i./hm^2) [%]	Growth inhibition rate, Post-emergence treatment, Echinochloa crus-galli (L.) Beauv. ([1]; dose 600 g a.i./hm^2) [%]	Growth inhibition rate, Pre-emergence treatment, Echinochloa crus-galli (L.) Beauv. ([1]; dose 37.5 g a.i./hm^2) [%]	Growth inhibition rate, Pre-emergence treatment, Echinochloa crus-galli (L.) Beauv. ([1]; dose 150 g a.i./hm^2) [%]	Growth inhibition rate, Pre-emergence treatment, Echinochloa crus-galli (L.) Beauv. ([1]; dose 600 g a.i./hm^2) [%]	Growth inhibition rate, Post-emergence treatment, Abutilon theophrasti Medic. ([2]; dose 37.5 g a.i./hm^2) [%]	Growth inhibition rate, Post-emergence treatment, Abutilon theophrasti Medic. ([2]; dose 150 g a.i./hm^2) [%]	Growth inhibition rate, Post-emergence treatment, Abutilon theophrasti Medic. ([2]; dose 600 g a.i./hm^2) [%]	Growth inhibition rate, Pre-emergence treatment, Abutilon theophrasti Medic. ([2]; dose 37.5 g a.i./hm^2) [%]	Growth inhibition rate, Pre-emergence treatment, Abutilon theophrasti Medic. ([2]; dose 150 g a.i./hm^2) [%]	Growth inhibition rate, Pre-emergence treatment, Abutilon theophrasti Medic. ([2]; dose 600 g a.i./hm^2) [%]	Growth inhibition rate, Post-emergence treatment, Setaria glauca (L.) Beauv. ([3]; dose 37.5 g a.i./hm^2) [%]	Growth inhibition rate, Post-emergence treatment, Setaria glauca (L.) Beauv. ([3]; dose 150 g a.i./hm^2) [%]	Growth inhibition rate, Post-emergence treatment, Setaria glauca (L.) Beauv. ([3]; dose 600 g a.i./hm^2) [%]	Growth inhibition rate, Pre-emergence treatment, Setaria glauca (L.) Beauv. ([3]; dose 37.5 g a.i./hm^2) [%]	Growth inhibition rate, Pre-emergence treatment, Setaria glauca (L.) Beauv. ([3]; dose 150 g a.i./hm^2) [%]	Growth inhibition rate, Pre-emergence treatment, Setaria glauca (L.) Beauv. ([3]; dose 600 g a.i./hm^2) [%]	Growth inhibition rate, Post-emergence treatment, Zinnia elegans Jacq. (Zinnia elegans Jacq.; dose 37.5 g a.i./hm^2) [%]	other results
CC(C)COC(=O)C1(C)CC(c2cc(-n3c(=O)cc(C(F)(F)F)n(C)c3=O)c(F)cc2Cl)=NO1 (stereo not shown) [Compound 397]	good	–	–	–	–	–	–	–	–	–	–	–	–	–	–	–	–	–	–	–	Growth inhibition rate, Post-emergence treatment, Echinochloa crus-galli (L.) Beauv. ([1]; dose 7.5 g a.i./hm^2): 45%; Growth inhibition rate, Post-emergence treatment, Echinochloa crus-galli (L.) Beauv. ([1]; dose 15 g a.i./hm^2): 65%; Growth inhibition rate, Post-emergence treatment, Echinochloa crus-galli (L.) Beauv. ([1]; dose 30.0 g a.i./hm^2): 100%; Growth inhibition rate, Post-emergence treatment, Echinochloa crus-galli (L.) Beauv. ([1]; dose 60.0 g a.i./hm^2): 100%; Growth inhibition rate, Post-emergence treatment, Echinochloa crus-galli (L.) Beauv. ([1]; dose 120.0 g a.i./hm^2): 100%; Growth inhibition rate, Post-emergence treatment, Abutilon theophrasti Medic. ([2]; dose 7.5 g a.i./hm^2): 98%; Growth inhibition rate, Post-emergence treatment, Abutilon theophrasti Medic. ([2]; dose 15 g a.i./hm^2): 100%; Growth inhibition rate, Post-emergence treatment, Abutilon theophrasti Medic. ([2]; dose 30.0 g a.i./hm^2): 100%; Growth inhibition rate, Post-emergence treatment, Abutilon theophrasti Medic. ([2]; dose 60.0 g a.i./hm^2): 100%; Growth inhibition rate, Post-emergence treatment, Abutilon theophrasti Medic. ([2]; dose 120.0 g a.i./hm^2): 100%; Growth inhibition rate, Post-emergence treatment, Setaria glauca (L.) Beauv. ([3]; dose 7.5 g a.i./hm^2): 55%; Growth inhibition rate, Post-emergence treatment, Setaria glauca (L.) Beauv. ([3]; dose 15 g a.i./hm^2): 75%; Growth inhibition rate, Post-emergence treatment, Setaria glauca (L.) Beauv. ([3]; dose 30.0 g a.i./hm^2): 85%; Growth inhibition rate, Post-emergence treatment, Setaria glauca (L.) Beauv. ([3]; dose 60.0 g a.i./hm^2): 100%; Growth inhibition rate, Post-emergence treatment, Setaria glauca (L.) Beauv. ([3]; dose 120.0 g a.i./hm^2): 100%; Growth inhibition rate, Post-emergence treatment, Zinnia elegans Jacq. (Zinnia elegans Jacq.; dose 7.5 g a.i./hm^2): 60%; Growth inhibition rate, Post-emergence treatment, Zinnia elegans Jacq. (Zinnia elegans Jacq.; dose 15 g a.i./hm^2): 85%; Growth inhibition rate, Post-emergence treatment, Zinnia elegans Jacq. (Zinnia elegans Jacq.; dose 30.0 g a.i./hm^2): 95%; Growth inhibition rate, Post-emergence treatment, Zinnia elegans Jacq. (Zinnia elegans Jacq.; dose 60.0 g a.i./hm^2): 100%; Growth inhibition rate, Post-emergence treatment, Zinnia elegans Jacq. (Zinnia elegans Jacq.; dose 120.0 g a.i./hm^2): 100%
CCCCOC(=O)C1(C)CC(c2cc(-n3c(=O)cc(C(F)(F)F)n(C)c3=O)c(F)cc2Cl)=NO1 (stereo not shown) [Compound 8]	good	–	–	–	–	–	–	–	–	–	–	–	–	–	–	–	–	–	–	–	Growth inhibition rate, Post-emergence treatment, Echinochloa crus-galli (L.) Beauv. ([1]; dose 7.5 g a.i./hm^2): 70%; Growth inhibition rate, Post-emergence treatment, Echinochloa crus-galli (L.) Beauv. ([1]; dose 15 g a.i./hm^2): 95%; Growth inhibition rate, Post-emergence treatment, Echinochloa crus-galli (L.) Beauv. ([1]; dose 30.0 g a.i./hm^2): 100%; Growth inhibition rate, Post-emergence treatment, Echinochloa crus-galli (L.) Beauv. ([1]; dose 60.0 g a.i./hm^2): 100%; Growth inhibition rate, Post-emergence treatment, Echinochloa crus-galli (L.) Beauv. ([1]; dose 120.0 g a.i./hm^2): 100%; Growth inhibition rate, Post-emergence treatment, Abutilon theophrasti Medic. ([2]; dose 7.5 g a.i./hm^2): 100%; Growth inhibition rate, Post-emergence treatment, Abutilon theophrasti Medic. ([2]; dose 15 g a.i./hm^2): 100%; Growth inhibition rate, Post-emergence treatment, Abutilon theophrasti Medic. ([2]; dose 30.0 g a.i./hm^2): 100%; Growth inhibition rate, Post-emergence treatment, Abutilon theophrasti Medic. ([2]; dose 60.0 g a.i./hm^2): 100%; Growth inhibition rate, Post-emergence treatment, Abutilon theophrasti Medic. ([2]; dose 120.0 g a.i./hm^2): 100%; Growth inhibition rate, Post-emergence treatment, Setaria glauca (L.) Beauv. ([3]; dose 7.5 g a.i./hm^2): 60%; Growth inhibition rate, Post-emergence treatment, Setaria glauca (L.) Beauv. ([3]; dose 15 g a.i./hm^2): 80%; Growth inhibition rate, Post-emergence treatment, Setaria glauca (L.) Beauv. ([3]; dose 30.0 g a.i./hm^2): 100%; Growth inhibition rate, Post-emergence treatment, Setaria glauca (L.) Beauv. ([3]; dose 60.0 g a.i./hm^2): 100%; Growth inhibition rate, Post-emergence treatment, Setaria glauca (L.) Beauv. ([3]; dose 120.0 g a.i./hm^2): 100%; Growth inhibition rate, Post-emergence treatment, Zinnia elegans Jacq. (Zinnia elegans Jacq.; dose 7.5 g a.i./hm^2): 90%; Growth inhibition rate, Post-emergence treatment, Zinnia elegans Jacq. (Zinnia elegans Jacq.; dose 15 g a.i./hm^2): 95%; Growth inhibition rate, Post-emergence treatment, Zinnia elegans Jacq. (Zinnia elegans Jacq.; dose 30.0 g a.i./hm^2): 95%; Growth inhibition rate, Post-emergence treatment, Zinnia elegans Jacq. (Zinnia elegans Jacq.; dose 60.0 g a.i./hm^2): 100%; Growth inhibition rate, Post-emergence treatment, Zinnia elegans Jacq. (Zinnia elegans Jacq.; dose 120.0 g a.i./hm^2): 100%
CCOC(=O)C1(C)CC(c2cc(-n3c(=O)cc(C(F)(F)F)n(C)c3=O)ccc2Cl)=NO1 (stereo not shown) [Compound 284]	good	70	80	100	0	10	20	95	100	100	0	50	65	75	90	100	0	10	20	100	Growth inhibition rate, Post-emergence treatment, Zinnia elegans Jacq. (Zinnia elegans Jacq.; dose 150 g a.i./hm^2): 100%; Growth inhibition rate, Post-emergence treatment, Zinnia elegans Jacq. (Zinnia elegans Jacq.; dose 600 g a.i./hm^2): 100%; Growth inhibition rate, Pre-emergence treatment, Zinnia elegans Jacq. (Zinnia elegans Jacq.; dose 37.5 g a.i./hm^2): 0%; Growth inhibition rate, Pre-emergence treatment, Zinnia elegans Jacq. (Zinnia elegans Jacq.; dose 150 g a.i./hm^2): 10%; Growth inhibition rate, Pre-emergence treatment, Zinnia elegans Jacq. (Zinnia elegans Jacq.; dose 600 g a.i./hm^2): 35%
Cn1c(C(F)(F)F)cc(=O)n(-c2cc(C3=NOC(C)(COC(=O)CCc4ccccc4)C3)c(Cl)cc2F)c1=O (stereo not shown) [Compound 55]	good	20	35	45	0	20	40	100	100	100	5	20	45	30	75	90	0	5	80	100	Growth inhibition rate, Post-emergence treatment, Zinnia elegans Jacq. (Zinnia elegans Jacq.; dose 150 g a.i./hm^2): 100%; Growth inhibition rate, Post-emergence treatment, Zinnia elegans Jacq. (Zinnia elegans Jacq.; dose 600 g a.i./hm^2): 100%; Growth inhibition rate, Pre-emergence treatment, Zinnia elegans Jacq. (Zinnia elegans Jacq.; dose 37.5 g a.i./hm^2): 0%; Growth inhibition rate, Pre-emergence treatment, Zinnia elegans Jacq. (Zinnia elegans Jacq.; dose 150 g a.i./hm^2): 5%; Growth inhibition rate, Pre-emergence treatment, Zinnia elegans Jacq. (Zinnia elegans Jacq.; dose 600 g a.i./hm^2): 80%
C#CCOC(=O)C1(C)CC(c2cc(-n3c(=O)cc(C(F)(F)F)n(C)c3=O)ccc2Cl)=NO1 (stereo not shown) [Compound 290]	good	25	65	70	0	0	20	85	98	100	10	35	60	40	75	85	0	10	25	75	Growth inhibition rate, Post-emergence treatment, Zinnia elegans Jacq. (Zinnia elegans Jacq.; dose 150 g a.i./hm^2): 100%; Growth inhibition rate, Post-emergence treatment, Zinnia elegans Jacq. (Zinnia elegans Jacq.; dose 600 g a.i./hm^2): 100%; Growth inhibition rate, Pre-emergence treatment, Zinnia elegans Jacq. (Zinnia elegans Jacq.; dose 37.5 g a.i./hm^2): 0%; Growth inhibition rate, Pre-emergence treatment, Zinnia elegans Jacq. (Zinnia elegans Jacq.; dose 150 g a.i./hm^2): 0%; Growth inhibition rate, Pre-emergence treatment, Zinnia elegans Jacq. (Zinnia elegans Jacq.; dose 600 g a.i./hm^2): 20%
CSCCC(=O)OCC1(C)CC(c2cc(-n3c(=O)cc(C(F)(F)F)n(C)c3=O)c(F)cc2Cl)=NO1 (stereo not shown) [Compound 54]	good	10	20	75	0	15	80	100	100	100	0	35	90	35	70	98	0	20	60	90	Growth inhibition rate, Post-emergence treatment, Zinnia elegans Jacq. (Zinnia elegans Jacq.; dose 150 g a.i./hm^2): 100%; Growth inhibition rate, Post-emergence treatment, Zinnia elegans Jacq. (Zinnia elegans Jacq.; dose 600 g a.i./hm^2): 100%; Growth inhibition rate, Pre-emergence treatment, Zinnia elegans Jacq. (Zinnia elegans Jacq.; dose 37.5 g a.i./hm^2): 0%; Growth inhibition rate, Pre-emergence treatment, Zinnia elegans Jacq. (Zinnia elegans Jacq.; dose 150 g a.i./hm^2): 20%; Growth inhibition rate, Pre-emergence treatment, Zinnia elegans Jacq. (Zinnia elegans Jacq.; dose 600 g a.i./hm^2): 60%
